Source: patent US20120129179A1, “SCN5A SPLICING FACTORS AND SPLICE VARIANTS FOR USE IN DIAGNOSTIC AND PROGNOSTIC METHODS” (THE BOARD OF TRUSTEES OF THE UNIVERSITY OF ILLINOIS, priority 2009, published 2012)

Key:
[1] = molecular target: RBM25 (Homo sapiens, UniProt P49756); experiment: Gel mobility shift assay; type: binding; conditions: 0.2 nM RNA, variable amounts of protein, 30 min at 4° C.
Method: (§1) Gel mobility shift assays: The biotinylated wild-type ([…]) and mutant ([…]) RNA substrates (SEQ ID NOs: 32 and 33, respectively) were synthesized by Invitrogen. Binding of biotinylated RNA to RBM25 was achieved by incubating 0.2 nM RNA and variable amounts of protein for 30 min at 4° C. in 20 μL of binding buffer (10 mM Tris-HCl, 10 mM HEPES, 100 mM NaCl, 0.1% Triton X-100, 2 mM MgCl2, 1.5 mM dithiothreitol (DTT) pH 7.5, 7% glycerol). For the competition assays, a molar excess of unlabeled competitor RNAs at various fold levels was added to the pre-incubated reaction mixture. Samples were fractionated in a native 5% polyacrylamide gel, transferred to Hybond-N+nylon membrane (Amersham Biosciences), and detected with a LightShift chemiluminescent electrophoretic mobility shift assay kit (Pierce) by following the manufacturer's protocol.
(§2) Gel mobility shift assays were performed as described previously with modification (Shang et al., Am. J. Physiol. Cell. Physiol., 292:C886-95, 2007, the disclosure of which is incorporated herein by reference in its entirety.). The biotinylated wild-type ([…]) and mutant ([…]) RNA substrates (SEQ ID NOs: 32 and 33, respectively) were synthesized. Binding of biotinylated RNA to RBM25 was achieved by incubating 0.2 nM RNA and variable amounts of protein for 30 min at 4° C. in 20 μL binding buffer. […]

[2] = tested on: hLuc7A; experiment: Western blot of hLuc7A in Jurkat cells; type: cell-based, human; conditions: Ang II 100 nmol/L, vs control group
Source text: (§3) Western blot analysis: The Mini-PROTEAN® Tetra Electrophoresis System from BioRad was used for Western blot analysis. Anti-Nav1.5 antibody, recognizing all channel variants, was provided by Dr. Peter Mohler (University of Iowa, Iowa City, Iowa). Anti-RBM25 antibody was provided by Dr. Huang (Dana-Farber Cancer Institute, Harvard, Boston, Mass.). Anti-PERK and hLuc7A antibodies were purchased from R&D Systems (Minneapolis, Minn.) and Millipore, (Billerica, Mass.).
(§4) The upregulation of splicing factors RBM25 and hLuc7A in Jurkat cells was further confirmed by Western blot. The Jurkat cells were divided into three experiment groups: normoxia, hypoxia-treated (1% O2), and Ang II-treated (100 nmol/L). The expressions of RBM25 and hLuc7A were analyzed by Western blot at three time points (12 h, 24 h, and 48 h) for hypoxia-treated group and at four time points (24 h, 48 h, 72 h, and 96 h) for Ang II-treated group. […] The density of hLuc7A was increased by 242.3±9.5%, 236.1±8.4% and 268.8±9.8% in hypoxia-treated group at time points 12 h, 24 h and 48 h, respectively, and was increased by 256.3±9.1%, 246.5±8.6%, 279.7±9.3% and 283.6±9.9% in Ang II-treated group at time points 24 h, 48 h, 72 h and 96 h, respectively (p<0.05).

[3] = tested on: PERK; experiment: Western blot of PERK in Jurkat cells; type: cell-based, human; conditions: Ang II-treated, vs control group
Source text: as §3
(§5) Hypoxia and AngII were used to increase abnormal SCN5A splicing. The expressions of PERK and sXBP1 were measured by RT-PCR. […] To test if this upregulation of one arm of the UPR was mediated by SCN5A mRNA variants, exogenous E28C and E28D were introduced. The Jurkat cells were divided into four experiment groups: normal control, empty vector control, variant E28C overexpressioned cells, and variant E28D overexpressioned cells. The expression of PERK was measures by RT-PCR in each group at the time point 48 h. […] The upregulation of PERK in Jurkat cells was further confirmed by Western blot.

[4] = tested on: SCN5A variant E28C; experiment: RT-PCR of SCN5A variant E28C; type: cell-based, human; conditions: Ang II treatment
Method: (§6) Real-Time PCR quantification: Total RNA was isolated from cultured cells using the Qiagen RNeasy Mini Kit (Valencia, Calif.). Total RNA from human ventricles was isolated using the RNeasy Lipid Tissue Mini Kit (Qiagen). Reverse transcription was carried out at 42° C. for 1 h with Powerscript reverse transcriptase (Roche). β-Actin was used as a reference when making quantitative comparison.
(§7) Changes in hLuc7A and RBM25 correlated with SCN5A E28C and E28D variant abundances. Under hypoxia, the expression of SCN5A variants E28C and E28D were increased by 373.5±5.7% and 636.2±7.6%, respectively (p<0.05), while the expressions of the full length SCN5A transcript was decreased by 64.6±4.9% (p<0.05). With Ang II treatment, the expressions of the variants were increased by 291.4±5.2% and 433.7±6.5% for E28C and E28D, respectively (p<0.05), while the expression of the full length SCN5A transcipt was decreased by 78.9±5.4% (p<0.05).
(§8) The siRNA knockdown efficiency was estimated by both RT-PCR and Western blot and was not less than 50%. The expressions of SCN5A and the variants E28C and E28D were measured by RT-PCR in all experiment groups at time points of maximal siRNA effect.

[5] = tested on: SCN5A variant E28D; experiment: RT-PCR of SCN5A variant E28D; type: cell-based, human; conditions: Ang II treatment
Method: as §6, §7, §8

[6] = tested on: sXBP1; experiment: RT-PCR of sXBP1 expression; type: cell-based, human; conditions: Ang II-treated
Method: as §6, §5

[7] = tested on: major UPR components (PERK, calnexin, CHOP); experiment: Induction of major UPR components in hESC-CMs; type: cell-based, human; conditions: 100 nmol/L Ang II
Source text: The correlation of expression changes among PERK, major human embryonic stem cell-derived cardiomyocytes (hESC-CMs). […] E28C and E28D constructs were transduced to overexpress the truncated proteins.
Finally, downregualtion of PERK prevented the loss of full-length SCN5A mRNA abundance with these stimuli.

[8] = tested on: RBM25; experiment: Real-time RT-PCR of RBM25 mRNA in Jurkat cells and H9 hESC-cardiomyocytes; type: cell-based, human; conditions: Ang II-treated (100 nmol/L)
Method: (§9) Cell culture assays: Jurkat T cell clones E6.1 (ATCC, Manassas, Va.) were cultured at 37° C. and 5% CO2 in RPMI 1640 medium supplemented with 10% heat inactivated fetal calf serum, 4 mM glutamine, 75 units/mL streptomycin and 100 units/mL penicillin. WA09 (H9) human undifferentiated ESCs were obtained through the National Stem Cell Bank and maintained on irradiated mouse embryonic fibroblasts at 37° C. with 5% CO2. The culture medium consisted of DMEM/F12 (Invitrogen, Carlsbad, Calif.) supplemented with 15% knockout serum, 1% non-essential amino acids, 1 mmol/L L-glutamine, 0.1 mmol/L β-mercaptoethanol, and basic fibroblast growth factor of 20 ng/mL.
as §6
(§10) Because AngII and hypoxia are common in heart failure, we investigated whether these two conditions could influence RBM25 and hLuc7A levels. […] The Jurkat cells and H9 hESC-CMs were divided into three experiment groups: normoxia, hypoxia-treated (1% O2), and Ang II-treated (100 nmol/L). […]

[9] = tested on: RBM25; experiment: Western blot of RBM25 in Jurkat cells; type: cell-based, human; conditions: Ang II 100 nmol/L, vs control group
Source text: as §3, §4

[10] = tested on: full length SCN5A transcript; experiment: RT-PCR of full length SCN5A transcript; type: cell-based, human; conditions: Ang II treatment
Method: as §6, §7
Hypoxia and AngII were used to increase abnormal SCN5A splicing. The expressions of PERK and sXBP1 were measured by RT-PCR. […] To test if this upregulation of one arm of the UPR was mediated by SCN5A mRNA variants, exogenous E28C and E28D were introduced. The Jurkat cells were divided into four experiment groups: normal control, empty vector control, variant E28C overexpressioned cells, and variant E28D overexpressioned cells. […]

[11] = tested on: hLuc7A; experiment: Real-time RT-PCR of hLuc7A mRNA in Jurkat cells and H9 hESC-cardiomyocytes; type: cell-based, human; conditions: Ang II-treated (100 nmol/L)
Method: as §9, §6, §10

[12] = tested on: PERK; experiment: RT-PCR of PERK expression; type: cell-based, human; conditions: Ang II-treated, 48 h
Method: as §6, §5

[13] = molecular target: T1, RBM25 (UniProt P49756 SEQ:1-843); experiment: EMSA; concentration-dependent; 0.2 nM RNA, 10 mM Tris-HCl, 10 mM HEPES, 100 mM NaCl, 2 mM MgCl2, pH 7.5, 4 C; unlabeled competitor assay also run; conditions: label: biotin
T1 sequence (P49756 whole entry): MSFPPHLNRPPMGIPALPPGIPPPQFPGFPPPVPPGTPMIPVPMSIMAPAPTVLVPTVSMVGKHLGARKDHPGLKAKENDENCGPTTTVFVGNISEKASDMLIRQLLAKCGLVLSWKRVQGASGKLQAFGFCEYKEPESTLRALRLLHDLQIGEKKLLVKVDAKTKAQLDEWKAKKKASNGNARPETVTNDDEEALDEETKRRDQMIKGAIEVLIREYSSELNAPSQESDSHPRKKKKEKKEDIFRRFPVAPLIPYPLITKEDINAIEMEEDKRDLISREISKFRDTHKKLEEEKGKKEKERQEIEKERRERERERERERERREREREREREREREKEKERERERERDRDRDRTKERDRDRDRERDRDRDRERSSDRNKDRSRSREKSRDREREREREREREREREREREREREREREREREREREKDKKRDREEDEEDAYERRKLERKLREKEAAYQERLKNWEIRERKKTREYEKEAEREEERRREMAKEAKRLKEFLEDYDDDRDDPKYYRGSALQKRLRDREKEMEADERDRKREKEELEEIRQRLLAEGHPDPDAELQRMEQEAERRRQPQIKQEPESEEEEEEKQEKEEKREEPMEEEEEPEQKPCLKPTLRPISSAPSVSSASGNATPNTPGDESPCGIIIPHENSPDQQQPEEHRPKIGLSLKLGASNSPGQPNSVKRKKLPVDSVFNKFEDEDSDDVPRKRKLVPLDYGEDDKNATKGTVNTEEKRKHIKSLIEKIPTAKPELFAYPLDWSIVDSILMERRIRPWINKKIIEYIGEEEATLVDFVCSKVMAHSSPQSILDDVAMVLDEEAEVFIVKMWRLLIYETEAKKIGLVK
Method: as §1, with “MgCl₂,” for “MgCl2,”
as §2

[14] = molecular target: T1, RBM25; experiment: EMSA; mutated canonical site; 0.2 nM RNA, 100 mM NaCl, 2 mM MgCl2, pH 7.5, 4 C; conditions: label: biotin
Method: as §1, with “MgCl₂,” for “MgCl2,”
as §2

RBM25 (Homo sapiens, UniProt P49756), sequence (P49756 whole entry): as above

Molecule: CAGCAGGCGGGCAGCGGCCU (RNA, backbone not given here; biotinylated RNA) [wild-type RNA substrate]
- binding of RBM25 to biotinylated RNA substrate [1]: bound the wild-type SCN5A sequence in a concentration-dependent manner

Molecule: CAGCAGGUUAGAGGCGGCCU (RNA, backbone not given here; biotinylated RNA) [mutant RNA substrate]
- binding of RBM25 to biotinylated RNA substrate [1]: inability of RBM25 to bind

Molecule: angiotensin II (DRVYIHPF; Angiotensin-2; UniProt P01019 25-32, looked up) [Ang II, angiotensin II, used at 100 nmol/L to treat Jurkat cells and hESC-CMs]
- density of hLuc7A increased by ([2]; 24 h): 256.3±9.1%
- density of hLuc7A increased by ([2]; 48 h): 246.5±8.6%
- density of hLuc7A increased by ([2]; 72 h): 279.7±9.3%
- density of hLuc7A increased by ([2]; 96 h): 283.6±9.9%
- density of PERK increased by [3]: 383.2±10.7%
- expression of SCN5A variant E28C increased by [4]: 291.4±5.2%
- expression of SCN5A variant E28D increased by [5]: 433.7±6.5%
- expression upregulation of sXBP1 [6]: no expression upregulation
- induction of major UPR components (PERK, calnexin, CHOP) [7]: could induce major UPR components
- expression of RBM25 increased by ([8]; ES cells (H9 hESC-CMs)): 42.1±4.7%
- expression of RBM25 increased by ([8]; Jurkat cells): 50.8±4.9%
- density of RBM25 increased by ([9]; 24 h): 209.5±8.8%
- density of RBM25 increased by ([9]; 48 h): 212.6±9.7%
- density of RBM25 increased by ([9]; 72 h): 181.3±8.3%
- density of RBM25 increased by ([9]; 96 h): 198.8±8.7%
- expression of the full length SCN5A transcript decreased by [10]: 78.9±5.4%
- expression of hLuc7A increased by ([11]; ES cells (H9 hESC-CMs)): 181.2±6.7%
- expression of hLuc7A increased by ([11]; Jurkat cells): 187.3±7.9%
- expression of PERK increased by [12]: 14.2±0.6 fold

B1: SCN5A exon 28 wild-type RNA (ssRNA)
RNA: CAGCAGGCGGGCAGCGGCCU
- binding result [13]: binds

B2: SCN5A exon 28 mutant RNA (ssRNA)
RNA: CAGCAGGUUAGAGGCGGCCU
- binding result [14]: no binding
